Structures can show the parent of a compound that is named as a salt. Ends that are not written are not given here.

Consider five compounds from patent US8481556B2, “Piperidinone carboxamide azaindane CGRP receptor antagonists” (Merck, Sharp & Dohms, Corp., priority 2010, dated 2013).

Experiment [1] deals with middle meningeal artery. The note with it: rats, electrical stimulation of the dura mater, prior administration (Williamson et al. 1997); cited from earlier work.
Experiment [2] relates to facial blood flow. The note with it: rat, trigeminal ganglion stimulation (Escott et al. 1995); cited from earlier work.
For experiment [3], the target named is T1, recombinant human CL receptor/RAMP1 (Homo sapiens, UniProt O60894+Q16602).
T1 construct: expressed in transfected cells; membranes used
T1 sequence (Q16602 23-461): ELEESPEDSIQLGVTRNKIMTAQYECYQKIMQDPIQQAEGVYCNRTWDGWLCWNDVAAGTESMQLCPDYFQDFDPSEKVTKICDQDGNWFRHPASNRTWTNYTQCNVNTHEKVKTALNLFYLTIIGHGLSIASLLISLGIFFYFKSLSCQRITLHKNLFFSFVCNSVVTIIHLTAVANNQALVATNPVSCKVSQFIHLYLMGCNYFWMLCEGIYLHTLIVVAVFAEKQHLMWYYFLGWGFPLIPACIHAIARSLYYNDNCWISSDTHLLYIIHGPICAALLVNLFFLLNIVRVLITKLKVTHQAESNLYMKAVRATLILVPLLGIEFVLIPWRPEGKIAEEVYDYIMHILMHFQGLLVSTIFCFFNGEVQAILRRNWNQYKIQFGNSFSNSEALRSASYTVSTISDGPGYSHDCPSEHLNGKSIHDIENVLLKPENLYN
T1 sequence (O60894 27-148): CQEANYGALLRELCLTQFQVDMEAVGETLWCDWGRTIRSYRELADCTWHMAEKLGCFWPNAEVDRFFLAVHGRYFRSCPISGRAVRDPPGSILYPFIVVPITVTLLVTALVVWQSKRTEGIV
The experiment can be described thus: Recombinant receptor binding assay (125I-hCGRP). Particulars: exemplary compounds of the invention. The procedure:
Human CL receptor (Genbank accession number L76380) was subcloned into the expression vector pIREShyg2 (BD Biosciences Clontech) as a 5′NheI and 3′ PmeI fragment. Human RAMP1 (Genbank accession number AJ001014) was subcloned into the expression vector pIRESpuro2 (BD Biosciences Clontech) as a 5′NheI and 3′NotI fragment. […] Cells were subcultured by treatment with 0.25% trypsin with 0.1% EDTA in HBSS. Stable cell line generation was accomplished by co-transfecting 10 μg of DNA with 30 μg Lipofectamine 2000 (Invitrogen) in 75 cm^2 flasks. CL receptor and RAMP1 expression constructs were co-transfected in equal amounts. Twenty-four hours after transfection the cells were diluted and selective medium (growth medium+300 μg/mL hygromycin and 1 μg/mL puromycin) was added the following day. A clonal cell line was generated by single cell deposition utilizing a FACS Vantage SE (Becton Dickinson). Growth medium was adjusted to 150 μg/mL hygromycin and 0.5 μg/mL puromycin for cell propagation.
The cell suspension was disrupted with a laboratory homogenizer and centrifuged at 48,000 g to isolate membranes. The pellets were resuspended in harvest buffer plus 250 mM sucrose and stored at −70° C. […] Scintillation fluid was added and the plates were counted on a Topcount (Packard).

In experiment [4] the test system is facial blood flow. Particulars: marmoset, electrical stimulation of the trigeminal ganglion (Doods et al. 2000); cited from earlier work.
For experiment [5], the system named is migraine. The note with it: cited from earlier work.

With “CGRP(8-37) (VTHRLAGLLSRSGGVVKNNFVPTNVGSKAF-NH2; ends and bridges not checked; UniProt P06881 90-119, looked up, fragment) [a peptide CGRP receptor antagonist]”, in experiment [1], the “effect on increase of middle meningeal artery diameter” value is recorded as “blocked”. Besides, in experiment [2], the “effect on increased facial blood flow” value is listed as “inhibited”.
Broadly, the Ki is the equilibrium dissociation constant of an inhibitor or competing ligand from its target. Consider `C[C@@H]1[C@H](c2cc(F)cc(F)c2F)C[C@H](NC(=O)c2cnc3c(c2)C[C@@]2(C3)C(=O)Nc3ncc(C#N)cc32)C(=O)N1CC(F)(F)F` [Example 34], for which the Ki in experiment [3] came out at 0.066 nM.
Take `NCCCC[C@H](NC(=O)[C@@H](Cc1cc(Br)c(O)c(Br)c1)NC(=O)N1CCC(N2Cc3ccccc3NC2=O)CC1)C(=O)N1CCN(c2ccncc2)CC1` [BIBN4096BS]: the “effect on increase in facial blood flow” value in experiment [4] is “could be blocked”. Further, in experiment [5] (clinical trials (Olesen et al. 2004)), the “effectiveness in treating acute attacks of migraine” value was “effective in treating acute attacks of migraine”.
Turning to `C[C@@H]1[C@H](c2c(F)ccc(F)c2F)C[C@H](NC(=O)c2cnc3c(c2)C[C@@]2(C3)C(=O)Nc3ncc(F)cc32)C(=O)N1CC(F)(F)F` [Example 33, (6S)-5′-Fluoro-N-[(3S,5S,6R)-6-methyl-2-oxo-1-(2,2,2-trifluoroethyl)-5-(2,3,6-trifluorophenyl)piperidin-3-yl]-2′-oxo-1′,2′,5,7-tetrahydrospiro[cyclopenta[b]pyridine-6,3′-pyrrolo[2,3-b]pyridine]-3-carboxamide hydrochloride], the Ki in experiment [3] was found to be 0.011 nM.
With `O=C(N[C@@H]1CC[C@@H](c2cccc(F)c2F)CN(CC(F)(F)F)C1=O)N1CCC(n2c(=O)[nH]c3ncccc32)CC1` [telcagepant], the antimigraine effectiveness result in experiment [5] (phase III clinical trials (Ho et al. 2008; Connor et al. 2009)) was “shown antimigraine effectiveness”.
